“Also recorded” adds a separate entry of the source.
What was measured:
PDLIM2 [1] = assay: qPCR of PDLIM2 in RAW264.7 macrophages; type: cell-based, mouse
Text: The indicated tissues or cells were subjected to RNA extraction, RNA reverse transcription and real-time PCR using trizol, reverse transcriptase, and Power SYBR Green PCR Master Mix (Thermo Fisher Scientific, Waltham, MA USA).

BACH1 [2] = assay: ChIP and nuclear fraction IB of BACH1 in RAW264.7 macrophages; type: cell-based, mouse
Protocol: Cells were collected after formaldehyde treatment. The chromatin DNA was extracted, broken into fragments of 300-1000 bp in length by sonication, and immunoprecipitated with antibodies to the target. IgG was used in immunoprecipitation as a control for nonspecific signal. DNA in the immunoprecipitation product was amplified by PCR.
Whole-cell extracts were prepared by lysing cells in RIPA buffer. Nuclear extracts were prepared by lysing pellets in insoluble nuclear buffer (20 mM Tris, pH 8.0, 150 mM NaCl, 1% [wt/vol] SDS, 1% [vol/vol] NP-40, and 10 mM iodoacetamide) after the cytoplasm was extracted with the hypotonic buffer (20 mM HEPES, pH 8.0, 10 mM KCl, 1 mM MgCl2, 0.1% [vol/vol] Triton X-100, and 20% [vol/vol] glycerol). The purity of the nuclear fractions was confirmed by checking Hsp90 (cytoplasm) or lamin B/C (nuclear fraction). All the lysis buffers were supplemented with 1 mM PMSF and a protease inhibitor cocktail (Roche Molecular Biochemicals). The cell extracts were used for […]. Briefly, the cell extracts were separated on polyacrylamide gels followed by electrotransfer onto nitrocellulose membranes. […] Specific immune complexes were detected by enhanced chemiluminescence as specified by the manufacturer (Western Lightning ECL Pro; Amersham).

PDLIM2 [3] = assay: qPCR analysis of PDLIM2 expression in human lung cancer cell lines; type: cell-based
BACH1 [4] = assay: IF analysis of BACH1 nuclear translocation in AMs of mice with lung tumors; set-up: species or system mouse; details: mice with lung tumors (urethane); in vivo treatment, 5 mg/ml in drinking water
Protocol: (§1) The animal experiments were performed in accordance with the US National Institutes of Health (NIH) Guidelines on the Use of Laboratory Animals. All animals were maintained under pathogen-free conditions. […], […] and Lysozyme M-Cre mice have been described before (Sun et al., Nat Commun 2019; 10:5324; Zhou et al., Oncogene 2015; 34:3804-3814; Zhou et al., Cancer Immunol Res 2017; 5:257-268; Li et al., Oncoimmunology 2018; 7:e1435250). Luciferase-expressing mice, PD-1 deficient mice and CD80/CD86 deficient mice were purchased from The Jackson Laboratory. Except for the PD-1 deficient mice and CD80/CD86 deficient mice, which are under […] background, all other mice were backcrossed to FVB/N mice (The Jackson Laboratory) for more than ten generations, and then used to generate the experimental mice. […] Louis, MO, USA) once a week for six consecutive weeks (8-10). […] Surface tumors in mouse lungs were counted by three blinded readers under a dissecting microscope, and tumor diameters were measured by microcalipers. […] Stained proteins and their subcellular localizations were detected using a fluorescence microscope.

PDLIM2 [5] = assay: qPCR and IF of PDLIM2 in AMs of mice with lung tumors; set-up: species or system mouse; details: mice with lung tumors (urethane); in vivo treatment
Protocol: as §1, with “microscope. […]” for “microscope.”

[6] = tested on: lung cancer induced by urethane; assay: Urethane model of lung cancer, tumor examination; type: in vivo, mouse; details: for tumor number and tumor burden: WT mice, carboplatin and paclitaxel together
Protocol: (§2) Urethane model: 6-8-week-old mice under FVB/N background were intraperitoneally (i.p.) injected with urethane (1 g/kg body weight, Sigma-Aldrich, St. Louis, MO, USA) once a week for six weeks. All mice were sacrificed for lung tumor examinations seven (for no drug treatment experiments) or six (for drug treatment experiments) weeks post urethane treatment. For drug treatment experiments, the epigenetic agents 5-aza-dC (1 mg/kg body weight, Sigma-Aldrich, St. Louis, MO, USA) and MS-275 (1 mg/kg body weight, Selleckchem, Houston, TX, USA), chemotherapeutic drugs carboplatin (30 mg/kg body weight, AdipoGen, San Diego, CA, USA) and paclitaxel (15 mg/kg body weight, AdipoGen, San Diego, CA, USA), and/or PD-1 neutralizing antibody (200 μg/mouse, BioXCell, West Lebanon, NH, USA) were i.p injected as indicated in FIG. 4. Surface tumors in mouse lungs were counted by three blinded readers under a dissecting microscope, and tumor diameters were measured by microcalipers. K-Ras^G12D model: 6-8-week-old mice under FVB/N background were intranasally administered 1×10^7 plaque-forming units of Cre-expressing adenovirus (adenocre; Gene Transfer Vector Core, University of Iowa, Iowa City, IA). Three months post AdenoCre treatment, all mice were sacrificed for lung tumor examinations.
PDLIM2flx/flx/SP-C-rtTAtg/−/(tetO)7CMV-Cretg/tg (ΔSPC) mice under a pure FVB/N background and PDLIM2−/− mice under a pure BABL/C background have been described before (Sun et al., Nat. Commun. 2019. 10, 5324). For lung carcinogenesis, six to eight week old ΔSPC and wild type FVB/N mice were intraperitoneally (i.p.) injected with urethane (1 mg/g body weight, Sigma-Aldrich, St. Louis, MO, USA) once a week for six consecutive weeks, followed by different treatment as shown in FIGS. 45A and 49A. Mice were sacrificed for lung inflammation and tumor examinations at six weeks post urethane treatment. Surface tumors in mouse lungs were counted blinded under a dissecting microscope, and tumor diameters were measured by microcalipers. […]

PD-L1 [7] = assay: qPCR of PD-L1 in lung cancer cells; type: cell-based, human
Text: Mouse lung tissues and BAL cells were subjected to RNA extraction, RNA reverse transcription and real-time PCR as described (Li et al., Oncoimmunology 7, e1435250 (2018); Sun et al., Bio. Protoc. 7, pii: e2287 (2017)).

PD-L1 [8] = assay: IHC staining of PD-L1 in lung cancer (urethane model); type: in vivo, mouse; details: carboplatin and paclitaxel (chemotherapy)
Protocol: as §2
Mouse or tissues were excised, fixed in formalin, embedded in paraffin, and cut into […] sections. Sections were stained with H&E, or subjected to sequential incubations with different primary antibodies and peroxidase-conjugated goat anti-rabbit secondary antibodies. The human lung tumor tissue arrays were described previously (Sun et al., Oncogene 35, 2299-2310 (2016)).
Lung tissues were excised, fixed in formalin, embedded in paraffin, and cut into 4-μm-thick sections. Sections were stained with H&E, or subjected to sequential incubations with the indicated primary antibodies, biotinylated secondary antibodies and streptavidin-HRP.

human lung cancer cells = assay: Cell growth assays; type: cell-based
Protocol: Cells were seeded into 12-well plates at a density of 5,000 cells per well, in the presence or absence of the indicated treatment. Cell density was determined by replacing the medium with 2 μmol/L of calcein AM in 1× dissociation solution (Trevigen) at the indicated time points. After 1 h of incubation, diesterase activity (relative fluorescence units) was measured with a Tecan Infinite 200 Microplate Reader, using an excitation wavelength of 485 nm and emission wavelength of 520 nm.

MDR1 = assay: qPCR of MDR1 in A549 lung cancer cells; type: cell-based, human; details: with or without PDLIM2 reconstitution
RelA = assay: Subcellular fraction-IB assay of nuclear RelA in lung cancer cells; type: cell-based, human; details: for RelA activation: lung cancer cells
[9] = Toxicity: animal body weight and H&E staining of major organs; type: in vivo, mouse; details: mice with lung cancer; 1 mg/kg of 5-aza-dC and MS-275 twice per week for 6 weeks
[10] = ΔSPC mice vs WT, carboplatin and paclitaxel combination therapy (Chemo)
[11] = ΔSPC mice, PD-1 blockade combined with carboplatin/paclitaxel chemotherapy

Which “PDLIM2 expression (qPCR)” value (PDLIM2 [1]; RAW264.7 macrophages treated with H2O2) does the source give for `OO` [H2O2] here?
Its value is “PDLIM2 expression decrease; also recorded: decreased PDLIM2”.

And the “nuclear BACH1 (nuclear fraction IB)” value (BACH1 [2]; RAW264.7 macrophages)?
The value was “induced BACH1 nuclear translocation; also recorded: increased nuclear BACH1”.

What about the “BACH1 and Pol II bound to the pdlim2 promoter (ChIP)” value (BACH1 [2]; RAW264.7 mouse macrophages, 500 μM, 4 hours) of the same molecule?
Its value is “detected BACH1 at the BACH1-binding site; also recorded: more BACH1 but less Pol II bound to the pdlim2 promoter”.

For `CC(/C=C/C(=O)NO)=C\[C@@H](C)C(=O)c1ccc(N(C)C)cc1` [TSA, Trichostatin A], which “PDLIM2 expression (qPCR)” value (PDLIM2 [3]; H460 human lung cancer cells) is on record?
The value was “PDLIM2 recovery”.

What about the “PDLIM2 expression (qPCR)” value (PDLIM2 [3]; human lung cancer cell lines) of the same molecule?
The value was “induced PDLIM2 re-expression”.

Which “PDLIM2 expression (qPCR)” value (PDLIM2 [1]; RAW264.7 macrophages in LLC lung tumor cell co-culture) does the source give for `CC(=O)N[C@@H](CS)C(=O)O` [NAC, N-Acetyl-L-cysteine] here?
The value was “could block the PDLIM2 suppression; also recorded: recovery”.

And the “BACH1 nuclear translocation in AMs (IF)” value (BACH1 [4])?
The value was “could efficiently be blocked; also recorded: inhibition of BACH1 nuclear translocation”.

What about the “PDLIM2 in AMs (IF)” value (PDLIM2 [5]) of the same molecule?
The value was “PDLIM2 induction”.

What about the “PDLIM2 in AMs (qPCR)” value (PDLIM2 [5]) of the same molecule?
The value was “could efficiently be blocked; also recorded: increased PDLIM2”.

With `N.N.O=C([O-])C1(C(=O)[O-])CCC1.[Pt+2]` [carboplatin] as the molecule, how does the “tumor number and tumor burden” value [6] read?
The value was “significant decrease in tumor number and tumor burden”.

And the “lung cancer treatment (tumor examination)” value (“lung cancer treatment” for short) [6, 10]?
The value was “more resistant; also recorded: increased resistance”.

And the “lung cancer treatment” value [6, 11]?
Its value is “resistant; also recorded: more resistant”.

And the “PD-L1 expression (qPCR)” value (PD-L1 [7]; Calu-6 human lung cancer cells)?
Its value is “PD-L1 induction”.

And the “PD-L1 expression (qPCR)” value (PD-L1 [7]; lung cancer cells)?
Its value is “PD-L1 induction”.

And the “PD-L1 expression in lung cancer (IHC staining)” value (PD-L1 [8])?
The value was “PD-L1 induction”.

With `CC(=O)O[C@H]1C(=O)[C@@]2(C)[C@H]([C@H](OC(=O)c3ccccc3)[C@]3(O)C[C@H](OC(=O)[C@H](O)[C@@H](NC(=O)c4ccccc4)c4ccccc4)C(C)=C1C3(C)C)[C@]1(OC(C)=O)CO[C@@H]1C[C@@H]2O` [paclitaxel] as the molecule, how does the “tumor number and tumor burden” value [6] read?
Its value is “significant decrease in tumor number and tumor burden”.

What about the “lung cancer treatment” value [6, 10] of the same molecule?
Its value is “more resistant; also recorded: increased resistance”.

And the “lung cancer treatment” value [6, 11]?
Its value is “resistant; also recorded: more resistant”.

And the “paclitaxel sensitivity (cell growth assays)” value (“paclitaxel sensitivity” for short) (human lung cancer cells; A549 cells with PDLIM2 reconstitution, consecutive 9-day paclitaxel cycles)?
The value was “increased paclitaxel sensitivity”.

What about the “paclitaxel sensitivity” value (human lung cancer cells; H460 cells with PDLIM2 reconstitution, consecutive 9-day paclitaxel cycles) of the same molecule?
The value was “increased paclitaxel sensitivity”.

What about the “paclitaxel sensitivity” value (human lung cancer cells; H460 human lung cancer cells with stable IκBα expression) of the same molecule?
Its value is “overcame the paclitaxel resistance; also recorded: increased paclitaxel sensitivity”.

What about the “acquired resistance to paclitaxel” value (human lung cancer cells; lung cancer cells with ectopic PDLIM2 expression) of the same molecule?
The value was “overcame the acquired resistance; also recorded: block acquired resistance”.

What about the “PD-L1 expression (qPCR)” value (PD-L1 [7]; lung cancer cells) of the same molecule?
The value was “PD-L1 induction”.

What about the “PD-L1 expression in lung cancer (IHC staining)” value (PD-L1 [8]) of the same molecule?
Its value is “PD-L1 induction”.

What about the “MDR1 expression (qPCR)” value (MDR1) of the same molecule?
Its value is “PDLIM2 suppressed paclitaxel induction of MDR1”.

And the “nuclear RelA (subcellular fraction-IB)” value (RelA; H460 human lung cancer cells reconstituted with PDLIM2)?
The value was “much lower paclitaxel induction of nuclear RelA”.

What about the RelA activation (RelA) of the same molecule?
The RelA activation was “further induced”.

And the RelA activation (RelA; listed as Paclitaxel)?
Its RelA activation is “increased RelA activation”.

For `Nc1ncn([C@H]2C[C@H](O)[C@@H](CO)O2)c(=O)n1` [5-aza-dC, 5-azadeoxycitidine], which animal body weight [9] is on record?
The animal body weight was “body weight loss”.

From patent publication US12637498B2, “PDLIM2 as a biomarker for cancer and as an anti-cancer treatment target” (UNIVERSITY OF PITTSBURGH—OF THE COMMONWEALTH SYSTEM OF …, priority 2019, dated 2026)
